Primed or numbered codes have the meaning given here. Where no end group is shown, it is not given here. [ ]: non-standard residue; d: D form. The star is where a group is joined. FITC′ = fluorescein isothiocyanate label at the N-terminus; Myristoyl = CCCCCCCCCCCCCC(=O)*
How the values were obtained:
Mut-p53 (R175H p53) = molecular target: T1, Mut-p53 (R175H p53) (Homo sapiens, UniProt P04637, R175H); experiment: Sandwich ELISA for p53 conformation (PAb1620/PAb240 reactivity); format: biochemical; conditions: extract of H1299 cells overexpressing R175H p53; peptide 50 ng/ml, 2 hours
T1 construct: a hot spot full length mutant p53 Mut-p53 R175H (R175H p53); expressed in transfected cells; host or cells: H1299 (p53-null) cells stably overexpressing R175H p53; cell extract
Experimental: To measure the conformational effect of the peptides on Mut-p53, a micro-titer plate was coated with either PAb240, PAb1620 or pAb421 (as a positive control and standard for total p53 protein, since the antibody used recognizes both WT and mutant conformations), overnight incubated, washed, blocked, and cell extracts (with or without peptides) were added for an additional 2 hours. After removal of extracts, plates were washed and incubated with the αp53-HRP conjugated Ab for the detection of p53 levels. A TMB (substrate of HRP) assay was performed and optical density was determined at 450 nm. WT p53 served as a positive control for reactivity with PAb1620, and Mut-p53 served as a negative control. The results are presented as the ratio of absorbance between the PAb1620 or PAb240 samples and the control […] sample. MCF7 and H1299-Mut-p53 (ts) A135V (TS) cells were used as positive controls for the WT p53 conformation (1620/240 ratio equals or exceeds 5:1).
96-well plates were coated using 3 different antibodies (1 type of antibody (Ab) in each well): PAb421 recognizes both conformations of p53 and binds to a C-terminus epitope; PAb240 recognizes mutant conformation of p53, binds to epitope within the core domain (amino acids 212-217) (Stephen, C. W. and D. P. Lane, Mutant conformation of p53. Precise epitope mapping using a filamentous phage epitope library. J. Mol. Biol., 1992. 225(3): p. 577-83) which is accessible to the Ab when the protein is partially denatured (for example, when the DBD is mutated); and PAb1620, which recognizes WT conformation of p53, binds to epitope with in the core domain (aa 156, 206-210), formed when folding is in WT conformation (Wang, P. L., F. Salt, and G. Winter, The ‘wild type’ conformation of p53: epitope mapping using hybrid proteins. Oncogene, 2001. 20(18): p. 2318-24).
Wells were incubated overnight (ON) with 100 μl Ab (5 μg/ml) in room temp (RT). The liquid was discarded, and the wells were washed 3 times with Phosphate buffered saline (PBS), 200 μl per each wash. Next, blocking with 200 μl of 5% bovine serum albumin (BSA) diluted in PBS in each well for 1.5 hours at room temperature (RT) was performed. Blocking buffer was discarded, followed by 3 washes in PBS as described above. Samples of mutant and WT p53 proteins (100 μl, 10 μg/ml), together with control peptides pCAP-710 (LPNPPER, SEQ ID NO:328) and pCAP-1220 ([…], SEQ ID NO:368) (5 μg/ml, Sigma Aldrich, or with test peptides 1-153 (5 μg/ml), were incubated for 1.5 hours together, and then added to the wells. Samples were rotated and incubated for 1 hour at RT. Samples were discarded, following 4 washes as described above, using Trisphosphate buffered saline (TPBS). Next, horseradish peroxidase (HRP) conjugated streptavidin p53 antibody (10 μg/ml HAF1355 (R&D)) was added to the wells and incubated at RT for 1 hour. After the plate was washed 3 times in TPBS, TMB substrate solution (50 μl each well, Thermo, (Cat. No. ES001-1L-K)) was added and incubated at 37° c. for 20 min. The reaction was stopped with 2M sulfuric acid (50 μl). The absorbance was measured at 450 nm with a spectrophotometer. Protein concentration was determined by dividing the absorbencies of each sample to the absorbance of Ab 421 samples.
The first screening strategy was based on ELISA. A version of sandwich ELISA was used to examine the effect of the lead test peptides on p53 conformation. To measure the conformational effect of the peptides on Mut-p53, a micro-titer plate was coated with PAb240, PAb1620 or pAb421 (as a positive control), and then the reactivity of p53 to these antibodies was examined. WT p53 served as a positive control for reactivity with PAb1620, and Mut-p53 served as a negative control. To examine the effect of a tested peptide it was added to a solution containing Mut-p53 and change in reactivity to either Ab was tested. […] Several ELISA experiments using different cell extracts were performed. […]

[1] = test system: SW-480 colon carcinoma cells (p53 R273H and P309S); experiment: Xenograft model, Preclinical Trial #3 (Table 9 experiment 3); format: in vivo, CD1 nude/nude mice
Experimental: FIGS. 21A, 21B, 21C, 21D and 21E illustrate the in vivo effect of the indicated peptides in a mouse xenograft model. SW-480 colon cancer cells expressing endogenous mutant p53 and stably expressing luciferase were injected into the left hip of CD1 nude/nude mice. When tumors reached visible size, bioluminescence (indicative of the number of cancer cells) was measured with the IVIS200 system.
After observing the highly significant result in the MDA-MB-231 experiment, additional studies were aimed to extend the observation and examine cells from a different origin, harboring a different p53 point mutation. The SW-480 colon carcinoma cell line harbors two endogenous p53 mutations: the R273H and P309S. SW-480 cells were stably infected with the luciferase reporter gene, and 10^6 cells were subcutaneously injected into nude mice. The experiment contained 15 mice that were randomly divided during the experiment into 3 groups: a control group treated with a cocktail of 3 pCAPs previously proven ineffective, a group treated with a cocktail of 3 effective pCAP (250, 308, 325) and finally a group treated with a single peptide, the pCAP-325. The duration of the SW-480 experiment was 42 days from the point of cell implantation. The time line is relative to the first day of treatment which is marked as day 0. FIGS. 21A-E show tumor growth over time in all three groups as measured by live imaging in the IVIS.
4 pre-clinical experiments have already been performed thus far, using the xenograft model of Mut-p53 expressing cells transfected with a luciferase expression vector, allowing tumor monitoring by live imaging. Two experiments were performed with MDA-MB-231 triple negative breast cancer cells (p53 R280K), one experiment used SW-480 colon cancer carcinoma cells (p53 R273H) and another experiment used SKBR3 breast cancer cells (p53 R175H). In each experiment, cells from the corresponding cell line were injected subcutaneously and allowed the formation of well-established tumors visible both by eye and by live imaging (typically 2-3 weeks). A treatment regimen was then administered, composed of intra-tumor injection of either effective lead peptides or control peptides (showing no activity in-vitro) every three days for a period of up to 42 days.

[2] = test system: ES2 ovarian carcinoma cells (Mut-p53, position 241); experiment: Annexin-V/PI apoptosis assay by flow cytometry; format: cell-based; conditions: 12 ug/ml
Experimental: FIGS. 17A, 17B, 17C and 17D illustrate representative experiments performed on ES2 ovarian carcinoma cells expressing Mut-p53 mutated at position 241 within the DBD. […] Cells were harvested and an apoptosis assay (FIGS. 17A and 17B) was performed using the Annexin-V staining kit (Roche, REF 11 988 549 001). Non-fixed cells were stained with both anti Annexin FITC conjugated antibody to detect apoptotic cells, and PI (propidium iodide) to stain dead cells, according to the manufacturer's instructions. Stained cells were then analyzed by flow cytometry. A total of 10,000 cells was counted for each sample and divided into four sub populations according to staining intensity; cells negative for both PI and Annexin (−PI, −Annexin) are termed live; cells negative for PI and positive for Annexin (−PI, +Annexin) are going through early stages of apoptosis; cells positive for PI and Annexin (+PI, +Annexin) are dead cells that underwent an apoptotic process; and cells positive for PI and negative for Annexin (+PI, −Annexin) are assumed as dead cells that died by a non-apoptotic process such as necrosis.
FIGS. 17A and 17B illustrate a representative experiments performed on ES2 ovarian carcinoma cells (FIGS. 17A-D) expressing Mut-p53 with a mutation at positions 241 within the DBD. […] Cells were harvested, and 60% of the cells were taken for Annexin-PI apoptosis assay and 40% for extraction of RNA, cDNA synthesis and real time PCR analysis. Apoptosis was assayed using the Annexin-V staining kit (Roche, REF 11 988 549 001). Non-fixed cells were stained with both anti Annexin FITC conjugated antibody to detect apoptotic cells, and PI (propidium-iodide) to stain dead cells permeable to the compound, according to the manufacturer's instructions. Stained cells were then analyzed by flow cytometry. A total of 10,000 cells was counted for each sample and divided into four subpopulations according to staining intensity: cells negative for both PI and Annexin (−PI, −Annexin) are termed live; cells negative for PI and positive for Annexin (−PI, +Annexin) are going through early stages of apoptosis; cells positive for PI and Annexin (+PI, +Annexin) are dead cells that underwent an apoptotic process; and cells positive for PI and negative for Annexin (+PI, −Annexin) are assumed to be dead cells that died a non-apoptotic death such as necrosis. […] Treatment with pCAPs 242 and 250 causes a rapid increase in apoptotic cells followed by cell death and after 5 hours of treatment 12% of cells are Annexin positive and about 7% are dead. After 16 and 24 hours of treatment with pCAP 250 the apoptotic population increases to about 27% and dead cells accumulate to 29% at 16h and 36% after 24h. […] CD95 and Btg-2 expression is elevated up to 6 fold over non-treated cells.

Mut-p53 = experiment: Total activity score over combined assays (Table 8); set-up: scale not given here; conditions: for Activity Score: Table 10 summary of activity of the peptides tested; for AS (Activity Score): total score of Table 7; for PCR, activity score / Conformation, activity score: Table 8; for PCR, activity score: head span not shown; for Conformation, activity score: the 14 score columns c4-c17 stand under the heads Conformation, DNA binding, Viability, PCR

| Substance | Activity Score (Mut-p53) | AS (Activity Score) (Mut-p53) | other results |
| --- | --- | --- | --- |
| LRCLLLLIGRVG [pCAP-24] |  |  | reactivity of R175H Mut-p53 towards PAb1620 and PAb240 (conformational change) (Mut-p53 (R175H p53)): increased reactivity of R175H Mut-p53 towards PAb1620 and decreased reactivity towards PAb240 |
| myr-RRIRDPRILLLHFD (Myristoyl-RRIRDPRILLLHFD) [pCAP-325] |  |  | IVIS average ratio to day 0 ([1]; Experiment 3, SW-480): 4.4%; Samples average size ([1]; Experiment 3, SW-480): 0.12; Samples average weight ([1]; Experiment 3, SW-480): 0.10; Number of total regression ([1]; Experiment 3, SW-480, 10 samples per group): 2; log of luminescence intensity mean at day 0 ([1]; day 0 (first day of treatment)): 8.97; average fold change in tumor size (from luminescence) ([1]; day 0 to day 35): 0.043 fold; tumor size decrease ([1]; day 0 to day 35, inferred from log of luminescence intensity mean): 95.6%; log of luminescence intensity mean at day 35 ([1]; day 35): 7.61; size and weight of extracted tumors compared to control peptides ([1]; p-value <0.05): significantly smaller in size and weight |
| myr-RRLIVRILKLPNPPER (Myristoyl-RRLIVRILKLPNPPER) [pCAP-242] |  |  | apoptosis and cell death time course compared with pCAP 250 [2]: attenuated and slower; Annexin positive cells ([2]; after 5 hours of treatment): 12%; dead cells ([2]; after 5 hours of treatment): about 7% |
| pCAP285 (RRDIIRHNAHS) | 4 |  |  |
| pCAP22 (SLLIGFGIIRSR) | 5 | 5 |  |
| pCAP295 (LDLYHPRERR) | 3 |  |  |
| pCAP218 (RREVTELHHTHEDRR) | 0 |  |  |
| pCAP224 (RRKSEPHSLSGGYQTGAD) | 2 |  |  |
| pCAP159 ([dR][dR][dR][dR][dR][dR][dR][dR]G[dL][dR]G[dR][dR][dI][dF][dL][dI][dF][dS]) | 53 | 53 |  |
| pCAP326 (Myristoyl-RRHNAHHSTPHPDDR) | 53 |  | PCR, activity score (Mut-p53): 4; Conformation, activity score (Mut-p53): 3 |
| pCAP179 (ILVI) | 0 | 0 |  |
| pCAP65 (THFSHHLKHRRRRRRRRRR) | 17 | 17 |  |
| pCAP239 (REGFYGPWHEQRRR) | 4 |  |  |
| pCAP99 (GLHLFTTDRQGW) | 7 | 7 |  |
| pCAP42 (MHPPDWYHHTPKH) | 29 | 29 |  |
| pCAP97 (WNHHHSTPHPAH) | 47 | 47 |  |

| Substance | Activity Score (Mut-p53) | AS (Activity Score) (Mut-p53) | other results |
| --- | --- | --- | --- |
| pCAP167 (FILIR) | 5 | 5 |  |
| pCAP162 (SILT) | 2 | 2 |  |
| pCAP221 (Myristoyl-RRKHNKHRPEPDSDER) | 60 |  | PCR, activity score (Mut-p53): 6; Conformation, activity score (Mut-p53): 3 |
| pCAP316 (Myristoyl-DIHTIHLPDTHRR) | 7 |  |  |
| pCAP178 (RRVI) | 0 | 0 |  |
| pCAP249 (Myristoyl-DERTGKTRRYIDTRDIRR) | 6 |  |  |
| pCAP48 (IPMNFTSHSLRQ) | 13 | 13 |  |
| pCAP215 (RRDTFDIRILMAF) | 0 |  |  |
| pCAP54 (IRGRIIR) | 26 | 26 |  |
| pCAP31 (PPYSQFLQWYLS) | 0 | 0 |  |
| pCAP225 (HTIHSISDFPEPPDRRRR) | 3 |  |  |
| pCAP251 (RLRRVILRSYHE) | 3 |  |  |
| pCAP143 (IPMNFTSHSLRQRRRRRRRRR) | 6 | 6 |  |
| pCAP64 (APSIFTPHAWRQ) | 2 | 2 |  |
| pCAP160 ({FITC′}-SFILFIRRGRLGRRRRRRRRR) | 24 | 24 |  |
| pCAP297 (HDFDPRYRDRR) | 0 |  |  |
